Source: publication PMC8764033, “Single-molecule analysis of specificity and multivalency in binding of short linear substrate motifs to the APC/C” (Nature Communications, 2022)
“And” between values parts separate entries of the source, which are not always exact repeats. Equal values may be shown once. “Also recorded” adds a separate entry of the source. Where a SMILES comes first, the peptide text is derived from it.

Experiments:
Format in all cases: binding
hCdh1^WD40 = biological target: T1, hCdh1^WD40 (Homo sapiens, UniProt Q9UM11); assay: SMOR assay, human Cdh1 WD40; details: for mean dwell time: representative of two independent experiments, ± SE, ligand ≤1 nM, buffer C + BSA
T1 construct: human Cdh1 (aa 165–484; pNH164); made in house; host or cells: Sf9 insect cells (baculovirus)
Method: (§1) Activators were cloned into the pFastBac HT A vector, with an N-terminal 2xStrep-Tag II. For some experiments, we constructed vectors for expression of the WD40 domains of yeast Cdh1 (aa 241–550; pNH144), human Cdh1 (aa 165–484; pNH164), or human Cdc20 (aa 162–484; pNH188). For SMOR, a C-terminal GFP tag was added. Bacmid plasmids are listed in Supplementary Table 3. Plasmids were transformed into DH10Bac cells, and purified Bacmid was used to transfect Sf9 cells to generate P1 baculovirus, which was used to generate P2 virus. SF9 cells were infected with the P2 virus for 48 h. Flash-frozen pellets were lysed by sonication or high-pressure homogenization in lysis buffer B (50 mM Tris-HCl pH 8, 150 mM KCl, 0.5 mM EDTA, 1 mM DTT, 10% Glycerol, EDTA-free protease inhibitor tablet, 1 µg ml^−1 pepstatin A). After the lysate was applied to the StrepTrap column, the column was washed with wash buffer B (lysis buffer B lacking protease inhibitors) and eluted in the same buffer containing 2.5 mM desthiobiotin.
(§2) For all SMOR experiments, 24 × 50 mm high precision glass coverslips (Bioscience Tools) and drilled microscope slides were passivated with a combination of PEG and PEG-biotin (coverslips) or PEG only (slides) following a previously published protocol for SiMPull[31]. Reaction chambers (~20 µl) were created using double-sided tape and epoxy. Protein was immobilized on the surface with 0.2 mg ml^−1 NeutrAvidin in buffer C (20 mM HEPES pH 7.5, 150 mM KCl, 10% glycerol, 0.05% Tween-20, 1 mM DTT). Excess NeutrAvidin was washed away and incubated with either biotin-conjugated mouse monoclonal anti-Strep-Tag II antibody (LSBio, Cat. No. LS-C203632-100) or biotin-conjugated rabbit polyclonal anti-GFP antibody (Rockland, Cat. No. 600-406-215) diluted in buffer C + BSA (0.1 mg ml^−1; Molecular Biology Grade Bovine Serum Albumin). Activator WD40 and activated APC/C (typically 50 µl containing about 65 ng APC/C, of which only a small fraction is immobilized on the glass) were immobilized using anti-Strep-Tag II, while APC/C alone was immobilized with anti-GFP. SMOR results were similar when performed in the buffer (wash buffer B) used in polarization anisotropy.
(§3) To capture dynamic protein–protein interactions, dye-labeled substrate diluted in buffer C + BSA was added to the chamber containing immobilized proteins. Interactions were imaged by TIRF microscopy as described below. For optimal signal-to-noise ratio, peptide concentration was no greater than 1 nM. Protein substrates included Hsl1 aa 667–872 and a C-terminal HaloTag followed by a TAP tag, and were produced by translation in rabbit reticulocyte lysates using TnT Quick Coupled Transcription/Translation System (Promega) (see Supplementary Table 5 for plasmids). Protein was purified with magnetic IgG beads and labeled on the bead with JF549 or JF646 dye so that unbound dye could be washed away. Purified dye-labeled protein was then cleaved from the beads using TEV protease. Before adding substrate to the reaction chamber, oxygen scavenging reagents were added (10 nM protocatechuate-3,4-dioxygenase, 2.5 mM protocatechuic acid, and 1 mM Trolox)[41]. A detailed description of the SMOR analysis pipeline is found in Supplementary Note 1.
(§4) Microscopy was performed with a Nikon Eclipse TE2000-E with Perfect Focus with a 100 × 1.49na oil, Apo TIRF DIC N2, 0.13-0.2, WD0.12 objective. Movies were recorded using the Andor iXon DU-897E-CSO. For visualizing GFP-tagged protein, a 491 nm laser was used with an ET525/50 (Chroma) filter for emission. For visualizing JF549-labeled substrate, a 561 nm laser was used with an ET595/50 (Chroma) filter for emission. For visualizing all Cy5-labeled peptides and JF646-labeled substrates, a 640 nm laser was used with an ET685/70 filter (Chroma) for emission. […]

hCdc20^WD40 = biological target: T2, hCdc20^WD40 (Homo sapiens, UniProt Q12834); assay: SMOR assay, human Cdc20 WD40; details: for Dwell Time: Clb5: Not 3x shutter speed
T2 construct: human Cdc20 (aa 162–484; pNH188); made in house; host or cells: Sf9 insect cells (baculovirus)
Method: as §1, §2, §3, §4

APC/C^Cdc20 = biological target: T3, APC/C^Cdc20 (Saccharomyces cerevisiae, UniProt P26309+P53068); assay: SMOR assay, yeast APC/C^Cdc20; details: for mean dwell time: representative of two independent experiments, ± SE, ligand ≤1 nM, buffer C + BSA
T3 construct: APC/C was purified from yeast cells; made in house; host or cells: APC/C from S. cerevisiae W303 strain NHY13 (Cdc16-TAP, Apc1-GFP, cdh1 deleted); Cdc20 from Sf9 (baculovirus)
Method: Yeast strains were derivatives of W303 and are listed in Supplementary Table 2. For APC/C purification, we used a strain carrying Cdc16-TAP and lacking Cdh1 (DOM1126); in most experiments, the strain also carried Apc1-GFP (NHY13). Yeast were grown in YPD media to OD600 = 0.8, collected and flash-frozen. Cells were lysed by bead beating in lysis buffer A (50 mM HEPES pH 7.5, 150 mM KCl, 10% glycerol, 0.2% Triton X-100, 63 µM B-glycerophosphate, 48 µM sodium fluoride, 1 µg ml^−1 pepstatin A, 1 µg ml^−1 leupeptin, 1 µg ml^−1 aprotinin, 1 mM PMSF, 1 mM DTT, 0.5 mM EDTA) and APC/C was purified using magnetic IgG beads. The beads were washed using wash buffer A (20 mM HEPES pH 7.5, 150 mM KCl, 10% Glycerol, 0.05% Triton X-100). After incubation with purified Cdh1 or Cdc20, the APC/C was cleaved off the beads with TEV protease in wash buffer A with 0.05% Tween-20 (for single-molecule studies) or 0.05% Triton X-100 (for ensemble assays such as ubiquitylation) and used immediately.
as §2, §3
Microscopy was performed with a Nikon Eclipse TE2000-E with Perfect Focus with a 100 × 1.49na oil, Apo TIRF DIC N2, 0.13-0.2, WD0.12 objective. Movies were recorded using the Andor iXon DU-897E-CSO. For visualizing GFP-tagged protein, a 491 nm laser was used with an ET525/50 (Chroma) filter for emission. For visualizing JF549-labeled substrate, a 561 nm laser was used with an ET595/50 (Chroma) filter for emission. For visualizing all Cy5-labeled peptides and JF646-labeled substrates, a 640 nm laser was used with an ET685/70 filter (Chroma) for emission. Initially, for each substrate tested, we acquired movies at multiple intervals to deduce the optimal interval to decrease bleaching. µManager version 2.0 was used to control the microscope and record time-lapse movies.

[1] = Supplementary Table 1, replicate 1
[2] = Supplementary Table 1, replicate 2
[3] = Supplementary Table 1, replicate 1 (movie listed first)
[4] = Supplementary Table 1, replicate 2 (movie listed second)

T1 sequence (Q9UM11 165-484): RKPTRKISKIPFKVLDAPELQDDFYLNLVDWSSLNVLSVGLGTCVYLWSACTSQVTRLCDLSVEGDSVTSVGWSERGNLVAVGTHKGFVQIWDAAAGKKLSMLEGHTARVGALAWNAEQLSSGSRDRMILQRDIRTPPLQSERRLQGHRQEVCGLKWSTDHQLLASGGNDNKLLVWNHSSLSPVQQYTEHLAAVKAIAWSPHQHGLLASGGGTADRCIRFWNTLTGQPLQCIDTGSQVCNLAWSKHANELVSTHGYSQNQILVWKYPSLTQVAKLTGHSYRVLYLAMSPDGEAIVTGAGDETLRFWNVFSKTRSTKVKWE
T2 sequence (Q12834 162-484): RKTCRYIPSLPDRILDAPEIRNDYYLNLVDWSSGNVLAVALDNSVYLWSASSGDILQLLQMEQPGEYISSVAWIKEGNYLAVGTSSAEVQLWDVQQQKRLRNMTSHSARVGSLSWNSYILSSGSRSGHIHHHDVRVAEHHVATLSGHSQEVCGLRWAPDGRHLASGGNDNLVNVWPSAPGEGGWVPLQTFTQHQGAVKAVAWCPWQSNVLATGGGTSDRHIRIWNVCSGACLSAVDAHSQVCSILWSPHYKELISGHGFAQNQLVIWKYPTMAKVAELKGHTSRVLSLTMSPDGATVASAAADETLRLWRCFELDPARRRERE

Row | Compound | binding (in words) (hCdh1^WD40) | Dwell Time (in words) (hCdh1^WD40; [1]) | Dwell Time (in words) (hCdh1^WD40; [2]) | binding (in words) (hCdc20^WD40) | Dwell Time (in words) (hCdc20^WD40; [1]) | Dwell Time (in words) (hCdc20^WD40; [2]) | binding (in words) (APC/C^Cdc20) | Dwell Time (in words) (APC/C^Cdc20; [1]) | Dwell Time (in words) (APC/C^Cdc20; [2]) | Dwell Time (APC/C^Cdc20; [3]) [s] | Dwell Time (APC/C^Cdc20; [4]) [s] | mean dwell time (APC/C^Cdc20) | fold higher affinity for APC/C^Cdc20 (APC/C^Cdc20; vs APC/C^Cdh1) [fold] | Dwell Time (hCdh1^WD40; [3]) [s] | Dwell Time (hCdh1^WD40; [4]) [s] | mean dwell time (hCdh1^WD40) | Dwell Time (hCdc20^WD40; [3]) [s] | Dwell Time (hCdc20^WD40; [4]) [s] | mean dwell time (hCdc20^WD40; less than three times the frame rate, therefore less reliable (footnote a)) [s^a]
1 | SKAAQFMLYEETAEERNI-K(Cy5) [Acm1 ABBA, Cy5-labeled Cdh1-specific ABBA motif from pseudosubstrate yeast protein Acm1] | No binding | no binding | no binding | No binding | no binding | no binding | No binding | no binding | no binding |  |  |  |  |  |  |  |  |  | 
2 | CC[C@H](C)[C@H](NC(=O)[C@H](Cc1ccccc1)NC(=O)[C@H](CO)NC(=O)[C@H](CCCCN)NC(=O)[C@H](CO)NC(=O)[C@H](CCCNC(=N)N)NC(=O)[C@H](CC(N)=O)NC(=O)[C@H](CC(N)=O)NC(=O)[C@H](CC(=O)O)NC(=O)[C@H](CCCCN)NC(=O)[C@H](C)NC(=O)[C@H](C)NC(=O)[C@H](CC(C)C)NC(=O)[C@@H]1CCCN1C(=O)[C@H](CC(C)C)NC(=O)[C@H](CCCNC(=N)N)NC(=O)CNC(=O)[C@H](CCC(N)=O)NC(=O)[C@H](CCC(N)=O)NC(=O)[C@H](CCC(N)=O)NC(=O)[C@H](C)N)C(=O)N[C@@H](CCCCN)C(=O)O [ySecurin D box] (H-AQQQGRLPLAAKDNNRSKSFIK-OH; N-terminus and C-terminus assumed) |  | single frame | single frame |  | single frame | single frame |  |  |  | 1.859 ± 0.041 | 1.870 ± 0.035 | 1.87 ± 0.04 s and 1.87 s | 15 |  |  |  |  |  | 
3 | LPKATRKALGTVNRATEKSVK-K(Cy5) [AurKB D box, Cy5-labeled D box peptide of Aurora B kinase] |  |  |  | single-frame interactions only | single frame | single frame | No binding | no binding | no binding |  |  |  |  | 0.202 ± 0.003 | 0.135 ± 0.003 | 0.202 ± 0.003 s and 0.202 s |  |  | 
4 | CC(C)C[C@H](NC(=O)[C@H](C)NC(=O)[C@H](CCCNC(=N)N)NC(=O)[C@H](CCCNC(=N)N)NC(=O)[C@@H]1CCCN1C(=O)[C@H](CCCCN)NC(=O)[C@H](CO)NC(=O)[C@H](CC(=O)O)NC(=O)[C@@H](N)CCC(N)=O)C(=O)N[C@H](C(=O)N[C@@H](CC(=O)O)C(=O)N[C@H](C(=O)N1CCC[C@H]1C(=O)N[C@H](C(=O)N[C@@H](CC(N)=O)C(=O)N[C@@H](CC(N)=O)C(=O)N[C@@H](CC(N)=O)C(=O)N1CCC[C@H]1C(=O)N[C@@H](CC(C)C)C(=O)N[C@@H](CO)C(=O)N[C@@H](CCC(N)=O)C(=O)N[C@@H](CCCCN)C(=O)O)C(C)C)C(C)C)[C@@H](C)O [Clb5 D box] (H-QDSKPRRALTDVPVNNNPLSQK-OH; N-terminus and C-terminus assumed) |  | single frame | single frame |  |  |  |  |  |  | 0.179 ± 0.008 | 0.207 ± 0.008 | 0.207 ± 0.008 s and 0.207 s |  |  |  |  | 0.054 ± 0.001 | 0.058 ± 0.001 | 0.054
5 | CC[C@H](C)[C@H](NC(=O)[C@H](CC(=O)O)NC(=O)[C@H](CO)NC(=O)[C@H](C)NC(=O)[C@H](C)NC(=O)[C@H](C)NC(=O)[C@H](C)NC(=O)[C@H](CCCCN)NC(=O)[C@@H]1CCCN1C(=O)[C@H](CCCCN)NC(=O)[C@H](CCC(N)=O)NC(=O)[C@@H](N)CCC(=O)O)C(=O)N[C@H](C(=O)N[C@@H](C)C(=O)N[C@@H](CO)C(=O)N[C@@H](Cc1ccccc1)C(=O)N[C@@H](CC(N)=O)C(=O)N[C@@H](CCCCN)C(=O)N[C@@H](CCSC)C(=O)N[C@@H](CC(N)=O)C(=O)N[C@@H](CCCCN)C(=O)O)[C@@H](C)O [Hsl1 D box mutant] (H-EQKPKAAAASDITASFNKMNK-OH; N-terminus and C-terminus assumed) | No binding | no binding |  | No binding | no binding |  | No binding | no binding | no binding |  |  |  |  |  |  |  |  |  | 
6 | LIYVDKENGEPGTR-K(Cy5) [hSecurin KEN, Cy5-labeled KEN box peptide of human securin/Pttg1] |  |  |  | did not bind human Cdc20^WD40; also recorded: No binding | no binding | no binding | No binding | no binding | no binding |  |  |  |  | 0.171 ± 0.004 | 0.174 ± 0.003 | 0.174 ± 0.003 s and 0.174 s |  |  | 
